Test results reported in US20100028889A1, “COMPANION DIAGNOSTIC ASSAYS FOR CANCER THERAPY” (ABBOTT LABORATORIES, priority 2006, published 2010).
Like-named read-outs stand apart in the source and are kept apart here.

Key:
Assay in all cases: cell cytotoxicity EC50, CellTiter Glo, SCLC cell line
Assay type in all cases: cell-based, human
NCI-H69 = system: NCI-H69
Method: (§1) The SCLC and leukemia/lymphoma cell lines listed below were obtained from the American Type Culture Collection (Manassas, Va.), Deutsche Sammlung von Mikroorganismen und Zellkulturen (DSMZ, Braunsweig, Germany), or were the generous gift from Dr. Louis Staudt (National Cancer Institute) and were cultured as described in Tse, C., Shoemaker, A. R., Adickes, J., et al., “ABT-263: a potent and orally bioavailable Bcl-2 family inhibitor,” Cancer Res 2008; 68: 3421-3428; and Tahir, S. K., Yang, X., Anderson, M. G., et al., “Influence of Bcl-2 family members on the cellular response of small-cell lung cancer cell lines to ABT-737,” Cancer Res 2007; 67: 1176-1183.
(§2) Cells were treated at 10,000 or 50,000 cells per well for adherent or suspension cells, respectively, in 96-well microtiter plates in the presence of 10% human serum for 48 hours with or without ABT-263, in a humidified chamber with 5% CO2. ABT-263 was synthesized as previously described in Tse, C., Shoemaker, A. R., Adickes, J., et al., “ABT-263: a potent and orally bioavailable Bcl-2 family inhibitor,” Cancer Res 2008; 68: 3421-3428; and Oltersdorf, T., Elmore, S. W., Shoemaker, A. R., et al., “An inhibitor of Bcl-2 family proteins induces regression of solid tumours,” Nature 2005; 435: 677-681, and cell cytotoxicity EC50 values were assessed using CellTiter Glo (Promega, Madison Wis.).

NCI-1417 = system: NCI-1417
Method: as §1, §2

NCI-H1105 = system: NCI-H1105
Method: as §1, §2

NCI-H1618 = system: NCI-H1618
Method: as §1, §2

NCI-H2107 = system: NCI-H2107
Method: as §1, §2

NCI-H82 = system: NCI-H82
Method: as §1, §2

NCI-H128 = system: NCI-H128
Method: as §1, §2

NCI-H345 = system: NCI-H345
Method: as §1, §2

NCI-H1930 = system: NCI-H1930
Method: as §1, §2

H69AR = system: H69AR
Method: as §1, §2

SW 1271 = system: SW 1271
Method: as §1, §2

NCI-H146 = system: NCI-H146
Method: as §1, §2

DMS79 = system: DMS79
Method: as §1, §2

NCI-H378 = system: NCI-H378
Method: as §1, §2

NCI-H1836 = system: NCI-H1836
Method: as §1, §2

NCI-H524 = system: NCI-H524
Method: as §1, §2

DMS 114 = system: DMS 114
Method: as §1, §2

NCI-H526 = system: NCI-H526
Method: as §1, §2

SHP-77 = system: SHP-77
Method: as §1, §2

DMS 53 = system: DMS 53
Method: as §1, §2

NCI-H510 = system: NCI-H510
Method: as §1, §2

NCI-H209 = system: NCI-H209
Method: as §1, §2

NCI-211 = system: NCI-211
Method: as §1, §2

NCI-H740 = system: NCI-H740
Method: as §1, §2

[1] = 10% human serum, 48 hours, read-out: EC50
[2] = Homo sapiens, read-out: Response Designation

CC1(C)CCC(c2ccc(Cl)cc2)=C(CN2CCN(c3ccc(C(=O)NS(=O)(=O)c4ccc(N[C@H](CCN5CCOCC5)CSc5ccccc5)c(S(=O)(=O)C(F)(F)F)c4)cc3)CC2)C1 [ABT-263, N-(4-(4-((2-(4-chlorophenyl)-5,5-dimethyl-1-cyclohex-1-en-1-yl)methyl)piperazin-1-yl)benzoyl)-4-(((1R)-3-(morpholin-4-yl)-1-((phenylsulfanyl)methyl)propyl)amino)-3-((trifluoromethyl)sulfonyl)benzenesulfonamide]
EC50 (NCI-H69; [1]): 710 nM
EC50 (NCI-H69; [2]): ≤ 4100 nM
EC50 (NCI-1417; [1]): 360 nM
EC50 (NCI-1417; [2]): ≤ 4100 nM
EC50 (NCI-H1105; [1]): 700 nM
EC50 (NCI-H1105; [2]): ≤ 4100 nM
EC50 (NCI-H1618; [1]): 1400 nM
EC50 (NCI-H1618; [2]): ≤ 4100 nM
EC50 (NCI-H2107; [1]): 300 nM
EC50 (NCI-H2107; [2]): ≤ 4100 nM
EC50 (NCI-H82; [1]): 22.4 µM
EC50 (NCI-H82; [2]): > 4.1 µM
EC50 (NCI-H128; [1]): 2500 nM
EC50 (NCI-H128; [2]): ≤ 4100 nM
EC50 (NCI-H345; [1]): 2160 nM
EC50 (NCI-H345; [2]): ≤ 4100 nM
EC50 (NCI-H1930; [1]): 3000 nM
EC50 (NCI-H1930; [2]): ≤ 4100 nM
EC50 (H69AR; [1]): 22.3 µM
EC50 (H69AR; [2]): > 4.1 µM
EC50 (SW 1271; Homo sapiens, SW1271, read-out: Response Designation): > 4.1 µM
EC50 (SW 1271; SW1271, 10% human serum, 48 hours, read-out: EC50): 33.9 µM
EC50 (NCI-H146; [1]): 110 nM
EC50 (NCI-H146; [2]): ≤ 4100 nM
EC50 (DMS79; DMS-79, 10% human serum, 48 hours, read-out: EC50): 1900 nM
EC50 (DMS79; Homo sapiens, DMS-79, read-out: Response Designation): ≤ 4100 nM
EC50 (NCI-H378; [1]): > 50 µM
EC50 (NCI-H378; [2]): > 4.1 µM
EC50 (NCI-H1836; [1]): 400 nM
EC50 (NCI-H1836; [2]): ≤ 4100 nM
EC50 (NCI-H524; [1]): 80 nM
EC50 (NCI-H524; [2]): ≤ 4100 nM
EC50 (DMS 114; [1]): 33.9 µM
EC50 (DMS 114; [2]): > 4.1 µM
EC50 (NCI-H526; [1]): 12.6 µM
EC50 (NCI-H526; [2]): > 4.1 µM
EC50 (SHP-77; Homo sapiens, SHP77, read-out: Response Designation): ≤ 4.1 µM
EC50 (SHP-77; SHP77, 10% human serum, 48 hours, read-out: EC50): 3.9 µM
EC50 (DMS 53; [1]): 1600 nM
EC50 (DMS 53; [2]): ≤ 4100 nM
EC50 (NCI-H510; [1]): 1220 nM
EC50 (NCI-H510; [2]): ≤ 4100 nM
EC50 (NCI-H209; [1]): 1150 nM
EC50 (NCI-H209; [2]): ≤ 4100 nM
EC50 (NCI-211; [1]): 410 nM
EC50 (NCI-211; [2]): ≤ 4100 nM
EC50 (NCI-H740; [1]): > 10 µM
EC50 (NCI-H740; [2]): > 4.1 µM
